Test [1] concerns the target T1, BTK (Homo sapiens (Human), UniProt Q06187). Put plainly: In Vitro PD Assay in Human Whole Blood (pBTK assay). In kind it is cell-based. Particulars: human heparinized whole blood, 37° C. for 30 min, total BTK capture and phosphotyrosine detection (ECL). Summed up: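 Heparinized human venous whole blood spiked with serially diluted compound (0.1% DMSO final) and incubated 30 min at 37° C. Lysed with protease/phosphatase inhibitors (high control +PPi, low control −PPi lacking phosphatase inhibitors); total BTK captured and phosphotyrosine detected.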

The target of test [2] is T1, BTK. Nature of the test: In Vitro BTK Kinase Assay: BTK-POLYGAT-LS ASSAY. It counts as biochemical. The note with it: fluorescein-labeled polyGAT peptide 100 nM, BTK enzyme 0.25 nM, 30 minutes, TRF. Summed up:
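ATP […] and polyGAT peptide (100 nM), final concentrations, in Tris-HCl pH 7.5 kinase buffer with MgCl2, DTT, Triton X-100 and casein. Reaction run 30 min, stopped with EDTA, then 45 min at room temperature.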

23 compounds from US10899753B2, “Inhibiting agents for Bruton's tyrosine kinase” (BIOGEN MA INC., priority 2018, dated 2021) can be followed below.

The structures appear in SMILES notation.

T1 sequence (Q06187 whole entry): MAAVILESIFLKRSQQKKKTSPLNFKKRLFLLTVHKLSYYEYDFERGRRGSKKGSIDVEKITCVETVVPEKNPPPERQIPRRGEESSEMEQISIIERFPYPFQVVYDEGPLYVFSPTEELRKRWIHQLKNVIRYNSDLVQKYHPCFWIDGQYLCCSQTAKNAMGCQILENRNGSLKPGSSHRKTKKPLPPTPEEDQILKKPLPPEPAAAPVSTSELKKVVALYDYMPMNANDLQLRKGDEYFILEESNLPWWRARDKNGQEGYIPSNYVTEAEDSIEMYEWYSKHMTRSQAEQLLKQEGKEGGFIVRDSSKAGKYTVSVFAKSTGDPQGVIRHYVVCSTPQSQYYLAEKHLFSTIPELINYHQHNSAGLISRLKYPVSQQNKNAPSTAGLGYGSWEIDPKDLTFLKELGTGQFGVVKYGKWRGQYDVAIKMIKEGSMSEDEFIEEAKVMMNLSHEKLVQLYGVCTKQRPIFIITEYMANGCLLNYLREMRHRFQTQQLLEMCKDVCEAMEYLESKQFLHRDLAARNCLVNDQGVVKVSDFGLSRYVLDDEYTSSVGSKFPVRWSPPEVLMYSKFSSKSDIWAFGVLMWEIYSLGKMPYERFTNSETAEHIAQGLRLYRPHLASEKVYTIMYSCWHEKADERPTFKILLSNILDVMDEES

For the compound `Cc1cc(-c2ncnc(Nc3cnn(C)c3)n2)ccc1CNC(=O)c1noc(C2(C)CC2)n1` [Compound 40, N-(2-methyl-4-(4-((1-methyl-1H-pyrazol-4-yl)amino)-1,3,5-triazin-2-yl)benzyl)-5-(1-methylcyclopropyl)-1,2,4-oxadiazole-3-carboxamide], the IC50 in test [1] was 100 to 500 nM; in test [2], less than 1 nM.

Consider `Cn1ccc(Nc2ncnc(-c3ccc(CNC(=O)c4noc(C(C)(C)CF)n4)c(C4CC4)c3)n2)n1` [Compound 54, N-(2-cyclopropyl-4-(4-((1-methyl-1H-pyrazol-3-yl)amino)-1,3,5-triazin-2-yl)benzyl)-5-(1-fluoro-2-methylpropan-2-yl)-1,2,4-oxadiazole-3-carboxamide], for which the values for the half-inhibitory concentration (IC50) in test [1] and in test [2] were 100 to 500 nM and less than 1 nM, respectively.

For `Cc1cc(-c2ncnc(Nc3ccn(C)n3)n2)ccc1CNC(=O)c1nn(C(C)(C)C)cc1F` [Compound 4, 1-(tert-butyl)-4-fluoro-N-(2-methyl-4-(4-((1-methyl-1H-pyrazol-3-yl)amino)-1,3,5-triazin-2-yl)benzyl)-1H-pyrazole-3-carboxamide], the results for the IC50 in test [1] and in test [2] were greater than 10000 nM and 1 to 10 nM, respectively.

For the compound `Cn1ccc(Nc2ncnc(-c3ccc4c(c3)CN(C3COC3)CC[C@H]4NC(=O)c3nc(C(C)(C)C)no3)n2)n1` [Compound 98, (R)-3-(tert-butyl)-N-(8-(4-((1-methyl-1H-pyrazol-3-yl)amino)-1,3,5-triazin-2-yl)-2-(oxetan-3-yl)-2,3,4,5-tetrahydro-1H-benzo[c]azepin-5-yl)-1,2,4-oxadiazole-5-carboxamide], the IC50 was 100 to 500 nM in test [1] and less than 1 nM in test [2].

Turning to `Cn1ccc(Nc2ncnc(-c3ccc(CNC(=O)c4noc(C5(C)CC5)n4)c(Cl)c3F)n2)n1` [Compound 104, N-(2-chloro-3-fluoro-4-(4-((1-methyl-1H-pyrazol-3-yl)amino)-1,3,5-triazin-2-yl)benzyl)-5-(1-methylcyclopropyl)-1,2,4-oxadiazole-3-carboxamide], the 50% inhibitory concentration (IC50) in test [1] was 500 to 10000 nM; in test [2] it was less than 1 nM.

Regarding `Cn1ccc(Nc2ncnc(-c3ccc4c(c3)CN(C3COC3)CC[C@H]4NC(=O)c3coc(C(C)(C)C)n3)n2)n1` [Compound 94, (R)-2-(tert-butyl)-N-(8-(4-((1-methyl-1H-pyrazol-3-yl)amino)-1,3,5-triazin-2-yl)-2-(oxetan-3-yl)-2,3,4,5-tetrahydro-1H-benzo[c]azepin-5-yl)oxazole-4-carboxamide], the half-maximal inhibitory concentration (IC50) in test [1] lay in the range of 100 to 500 nM; in test [2], 1 to 10 nM.

As to `Cn1cc(Nc2ncnc(-c3ccc(CNC(=O)c4nc(C(C)(C)C)no4)c(Cl)c3)n2)cn1` [Compound 16, 3-(tert-butyl)-N-(2-chloro-4-(4-((1-methyl-1H-pyrazol-4-yl)amino)-1,3,5-triazin-2-yl)benzyl)-1,2,4-oxadiazole-5-carboxamide], the IC50 was 100 to 500 nM in test [1] and less than 1 nM in test [2].

As to `Cn1ccc(Nc2ncnc(-c3ccc4c(c3)CN(CC(F)(F)F)CC[C@H]4NC(=O)c3coc(C(C)(C)C)n3)n2)n1` [Compound 95, (R)-2-(tert-butyl)-N-(8-(4-((1-methyl-1H-pyrazol-3-yl)amino)-1,3,5-triazin-2-yl)-2-(2,2,2-trifluoroethyl)-2,3,4,5-tetrahydro-1H-benzo[c]azepin-5-yl)oxazole-4-carboxamide], the IC50 was 500 to 10000 nM in test [1] and less than 1 nM in test [2].

Take `Cc1c([C@@H](C)NC(=O)c2noc(C(C)(C)C)n2)ccc(-c2ncnc(Nc3cnn(C)c3)n2)c1Cl` [Compound 81, (R)-5-(tert-butyl)-N-(1-(3-chloro-2-methyl-4-(4-((1-methyl-1H-pyrazol-4-yl)amino)-1,3,5-triazin-2-yl)phenyl)ethyl)-1,2,4-oxadiazole-3-carboxamide]: the IC50 in test [1] is less than 100 nM; in test [2], less than 1 nM.

`Cn1ccc(Nc2ncnc(-c3ccc4c(c3)CN(CC(F)(F)F)CC[C@H]4NC(=O)c3nc(C(C)(C)C)co3)n2)n1` [Compound 96, (R)-4-(tert-butyl)-N-(8-(4-((1-methyl-1H-pyrazol-3-yl)amino)-1,3,5-triazin-2-yl)-2-(2,2,2-trifluoroethyl)-2,3,4,5-tetrahydro-1H-benzo[c]azepin-5-yl)oxazole-2-carboxamide]: the IC50 in test [1] fell in the range of 500 to 10000 nM; in test [2], 1 to 10 nM.

In the case of `Cc1c([C@@H](C)NC(=O)c2noc(C(C)(C)C)n2)ccc(-c2ncnc(Nc3ccn(C)n3)n2)c1F` [Compound 71, (R)-5-(tert-butyl)-N-(1-(3-fluoro-2-methyl-4-(4-((1-methyl-1H-pyrazol-3-yl)amino)-1,3,5-triazin-2-yl)phenyl)ethyl)-1,2,4-oxadiazole-3-carboxamide], the IC50 in test [1] is 100 to 500 nM; in test [2] it was less than 1 nM.

Turning to `Cc1cc(-c2ncnc(Nc3ccn(C)n3)n2)ccc1CNC(=O)c1cc(C(C)(C)C)no1` [Compound 43, 3-(tert-butyl)-N-(2-methyl-4-(4-((1-methyl-1H-pyrazol-3-yl)amino)-1,3,5-triazin-2-yl)benzyl)isoxazole-5-carboxamide], the half-maximal inhibitory concentration (IC50) in test [1] lay in the range of 500 to 10000 nM; in test [2], 1 to 10 nM.

Consider `Cc1cc(-c2ncnc(Nc3cnn(C)c3)n2)c(F)cc1CNC(=O)c1cc(C(C)(C)C)no1` [Compound 63, 3-(tert-butyl)-N-(5-fluoro-2-methyl-4-(4-((1-methyl-1H-pyrazol-4-yl)amino)-1,3,5-triazin-2-yl)benzyl)isoxazole-5-carboxamide], for which the concentration for half-maximal inhibition (IC50) is 500 to 10000 nM in test [1] and less than 1 nM in test [2].

For `Cn1ccc(Nc2ncnc(-c3ccc(CNC(=O)c4nc(C(C)(C)C)no4)c(C(F)F)c3F)n2)n1` [Compound 66, 3-(tert-butyl)-N-(2-(difluoromethyl)-3-fluoro-4-(4-((1-methyl-1H-pyrazol-3-yl)amino)-1,3,5-triazin-2-yl)benzyl)-1,2,4-oxadiazole-5-carboxamide], the results for the half-maximal inhibitory concentration (IC50) in test [1] and in test [2] were 500 to 10000 nM and 1 to 10 nM, respectively.

Turning to `Cn1ccc(Nc2ncnc(-c3cc4c(cc3F)[C@H](NC(=O)c3noc(C(C)(C)C)n3)CCCC4)n2)n1` [Compound 84, (R)-5-(tert-butyl)-N-(3-fluoro-2-(4-((1-methyl-1H-pyrazol-3-yl)amino)-1,3,5-triazin-2-yl)-6,7,8,9-tetrahydro-5H-benzo[7]annulen-5-yl)-1,2,4-oxadiazole-3-carboxamide], the figures for the IC50 in test [1] and in test [2] were 100 to 500 nM and less than 1 nM, respectively.

`Cn1ccc(Nc2ncnc(-c3ccc(CNC(=O)c4noc(C(C)(C)C)n4)c(Cl)c3)n2)n1` [Compound 5, 5-(tert-butyl)-N-(2-chloro-4-(4-((1-methyl-1H-pyrazol-3-yl)amino)-1,3,5-triazin-2-yl)benzyl)-1,2,4-oxadiazole-3-carboxamide]: the values for the half-maximal inhibitory concentration (IC50) in test [1] and in test [2] were 500 to 10000 nM and 1 to 10 nM, respectively.

Take `Cc1cc(-c2ncnc(Nc3cnn(C)c3)n2)c(F)cc1CNC(=O)c1cn(C(C)(C)C)nn1` [Compound 62, 1-(tert-butyl)-N-(5-fluoro-2-methyl-4-(4-((1-methyl-1H-pyrazol-4-yl)amino)-1,3,5-triazin-2-yl)benzyl)-1H-1,2,3-triazole-4-carboxamide]: the 50% inhibitory concentration (IC50) is 500 to 10000 nM in test [1] and 1 to 10 nM in test [2].

Regarding `Cc1c(-c2ncnc(Nc3cnn(C)c3)n2)ccc([C@@H](C)NC(=O)c2noc(C(C)(C)C)n2)c1Cl` [Compound 77, (R)-5-(tert-butyl)-N-(1-(2-chloro-3-methyl-4-(4-((1-methyl-1H-pyrazol-4-yl)amino)-1,3,5-triazin-2-yl)phenyl)ethyl)-1,2,4-oxadiazole-3-carboxamide], the values for the 50% inhibitory concentration (IC50) in test [1] and in test [2] were 100 to 500 nM and less than 1 nM, respectively.

Regarding `Cn1ccc(Nc2ncnc(-c3ccc(CNC(=O)c4nc(C(C)(C)C)no4)c(C4CC4)c3F)n2)n1` [Compound 55, 3-(tert-butyl)-N-(2-cyclopropyl-3-fluoro-4-(4-((1-methyl-1H-pyrazol-3-yl)amino)-1,3,5-triazin-2-yl)benzyl)-1,2,4-oxadiazole-5-carboxamide], the concentration for half-maximal inhibition (IC50) in test [1] was 500 to 10000 nM; in test [2], less than 1 nM.

Regarding `Cn1cc(Nc2ncnc(-c3ccc(CNC(=O)c4noc(C(C)(C)C)n4)c(Cl)c3)n2)cn1` [Compound 15, 5-(tert-butyl)-N-(2-chloro-4-(4-((1-methyl-1H-pyrazol-4-yl)amino)-1,3,5-triazin-2-yl)benzyl)-1,2,4-oxadiazole-3-carboxamide], the IC50 was 100 to 500 nM in test [1] and less than 1 nM in test [2].

As for `C[C@@H](NC(=O)c1nc(C(C)(C)C)no1)c1ccc(-c2ncnc(Nc3ccn(C)n3)n2)c(F)c1Cl` [Compound 102, (R)-3-(tert-butyl)-N-(1-(2-chloro-3-fluoro-4-(4-((1-methyl-1H-pyrazol-3-yl)amino)-1,3,5-triazin-2-yl)phenyl)ethyl)-1,2,4-oxadiazole-5-carboxamide], the IC50 was 500 to 10000 nM in test [1] and less than 1 nM in test [2].

In the case of `Cc1cc(-c2ncnc(Nc3cnn(C)c3)n2)ccc1CNC(=O)c1nnn(C(C)(C)C)n1` [Compound 39, 2-(tert-butyl)-N-(2-methyl-4-(4-((1-methyl-1H-pyrazol-4-yl)amino)-1,3,5-triazin-2-yl)benzyl)-2H-tetrazole-5-carboxamide], the values for the concentration for half-maximal inhibition (IC50) in test [1] and in test [2] were less than 100 nM and less than 1 nM, respectively.

As for `Cc1c(-c2ncnc(Nc3cnn(C)c3)n2)ccc([C@@H](C)NC(=O)c2nc(C(C)(C)C)no2)c1Cl` [Compound 78, (R)-3-(tert-butyl)-N-(1-(2-chloro-3-methyl-4-(4-((1-methyl-1H-pyrazol-4-yl)amino)-1,3,5-triazin-2-yl)phenyl)ethyl)-1,2,4-oxadiazole-5-carboxamide], the IC50 in test [1] was in the range of 100 to 500 nM; in test [2], 1 to 10 nM.

As a reminder, the IC50 is the midpoint of a concentration-inhibition curve. Higher therefore signals lower potency.
